# Laboratory results taken from patent US20230219965A1 (KSQ Therapeutics, Inc., priority 2020, published 2023).
# Target: USP1/UAF1 enzyme (Homo sapiens, UniProt O94782)
# Test: USP1/UAF1 deubiquitination assay (ubiquitin-rhodamine 110 substrate)
# Format: biochemical
# Conditions: read-out: USP1 IC50 (Ub-Rho)
# Description: Certain Compounds of the Disclosure were assessed for USP1/UAF1 activity in a Ubiquitin Rhodamine assay modified from those described previously.
# Deubiquitinase activity was measured using ubiquitin-rhodamine 110 as a substrate. Cleavage of the amide bond between rhodamine and the c-terminal glycine of ubiquitin yields an increase in fluorescence signal. The assay was conducted in 20 μl total volume of assay buffer (50 mM Tris-HCl, pH 7.8, 0.5 mM EDTA, 0.01% Bovine Serum Albumin, 1 mM DTT, 0.01% Tween-20), and 0.05 nM USP1/UAF1 enzyme. Reaction was initiated by addition of 150 nM Ubiquitin-rhodamine (Boston Biochem) substrate.
# Compounds of the Disclosure, dissolved in DMSO were tested in dose response format, beginning at […].
# The example compounds listed below were added to enzyme/assay buffer mix and incubated 10 min. Substrate mix was added, and reaction mix was read in kinetic mode for 30 min at Ex480/Em540 and IC50 response curves were plotted.
# Data for all assay formats was calculated as percent inhibition compared with control wells. Percent inhibition was calculated using the following equation: % inhibition=100×[1−(X−min)/(max−min)], where X is the raw data readout, min is the average of the no enzyme control wells (n=32), max is the average of the DMSO control well (n=32). IC50 values were calculated using the standard four parameter curve fitting algorithm in either Prism GraphPad (La Jolla, Calif.) software, or Collaborative Drug Discovery (Burlingame, Calif.) CDD Vault. See Chem. Biol. 20(1): 55-62 (Jan. 24, 2013); Bioorg. Med. Chem. Lett. 23(20): 5660-5666 (Oct. 15, 2013).
# Chain of USP1/UAF1 enzyme (O94782 whole entry): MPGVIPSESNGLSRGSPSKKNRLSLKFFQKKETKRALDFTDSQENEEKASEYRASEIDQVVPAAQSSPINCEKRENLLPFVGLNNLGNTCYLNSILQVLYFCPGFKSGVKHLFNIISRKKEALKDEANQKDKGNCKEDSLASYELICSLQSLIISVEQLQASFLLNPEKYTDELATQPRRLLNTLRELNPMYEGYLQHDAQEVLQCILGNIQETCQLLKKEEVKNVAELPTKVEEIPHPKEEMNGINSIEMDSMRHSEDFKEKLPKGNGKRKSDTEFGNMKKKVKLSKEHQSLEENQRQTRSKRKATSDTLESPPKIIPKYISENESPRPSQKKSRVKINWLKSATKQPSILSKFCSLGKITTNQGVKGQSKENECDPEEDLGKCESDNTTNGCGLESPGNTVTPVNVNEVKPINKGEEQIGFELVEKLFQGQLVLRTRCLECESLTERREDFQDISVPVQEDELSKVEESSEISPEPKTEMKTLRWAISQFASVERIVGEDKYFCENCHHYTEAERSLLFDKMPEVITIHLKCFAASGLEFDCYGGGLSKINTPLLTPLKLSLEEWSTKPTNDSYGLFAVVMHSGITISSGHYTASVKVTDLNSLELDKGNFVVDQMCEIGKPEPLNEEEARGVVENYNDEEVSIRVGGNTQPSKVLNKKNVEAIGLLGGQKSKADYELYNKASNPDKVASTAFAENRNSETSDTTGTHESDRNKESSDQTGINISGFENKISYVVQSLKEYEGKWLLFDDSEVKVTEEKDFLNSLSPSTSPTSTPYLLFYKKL
# Chain of USP1/UAF1 enzyme (Q8TAF3 whole entry partner): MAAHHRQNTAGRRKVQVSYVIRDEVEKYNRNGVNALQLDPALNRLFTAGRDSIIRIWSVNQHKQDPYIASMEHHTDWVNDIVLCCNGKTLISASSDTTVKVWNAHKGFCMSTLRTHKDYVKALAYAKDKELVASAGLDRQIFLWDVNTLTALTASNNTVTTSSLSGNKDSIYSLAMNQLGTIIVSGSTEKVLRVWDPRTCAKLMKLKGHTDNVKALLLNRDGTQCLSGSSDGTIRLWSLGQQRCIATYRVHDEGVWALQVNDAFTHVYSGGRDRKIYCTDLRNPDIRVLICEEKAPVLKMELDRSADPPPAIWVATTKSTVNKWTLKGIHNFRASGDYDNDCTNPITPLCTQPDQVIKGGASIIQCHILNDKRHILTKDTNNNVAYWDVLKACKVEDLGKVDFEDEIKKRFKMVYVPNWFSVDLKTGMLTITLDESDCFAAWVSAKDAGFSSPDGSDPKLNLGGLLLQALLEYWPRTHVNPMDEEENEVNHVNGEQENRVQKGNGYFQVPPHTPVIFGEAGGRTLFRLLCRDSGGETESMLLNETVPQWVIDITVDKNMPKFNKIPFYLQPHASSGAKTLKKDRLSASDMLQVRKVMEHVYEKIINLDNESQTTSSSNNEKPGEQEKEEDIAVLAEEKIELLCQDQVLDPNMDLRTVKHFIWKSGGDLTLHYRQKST
row,Compound,IC50 [nM]
1,"COc1cccnc1-c1ccc(N[C@@H]2CCCn3nc(-c4c(OC)ncnc4C4CC4)cc32)cc1F (single isomer, unassigned) [Example 251]",> 500
2,"CCn1nc(-c2ccc(CN3C(=O)CCn4nc(-c5c(C)cnn5C(C)C)cc43)cc2)nc1C(F)(F)F [Example 15, 4-(4-(1-ethyl-5-(trifluoromethyl)-1H-1,2,4-triazol-3-yl)benzyl)-2-(1-isopropyl-4-methyl-1H-pyrazol-5-yl)-6,7-dihydropyrazolo[1,5-a]pyrimidin-5(4H)-one]",> 500
3,CCn1cc(C(F)(F)F)nc1-c1ccc(CN2C(=O)CCn3nc(-c4c(OC)cnn4C(C)C)nc32)cc1 [Example 45],> 500
4,COc1ncnc(C2CC2)c1-c1cc2n(n1)CCC(=O)N2Cc1ccc(-c2nc(C(F)(F)F)cn2C)nc1 [Example 83],> 500
5,CCn1nc(C(F)(F)F)nc1-c1ccc(CN2C(=O)CCn3nc(-c4c(OC)ncnc4C4CC4)cc32)cc1 [Example 87],> 500
6,COc1ncnc(C2CC2)c1-c1cc2n(n1)CCC(=O)N2Cc1ccc(-c2nn(C)cc2C)cc1 [Example 90],> 500
7,Cc1cc(C(F)(F)F)n(-c2ccc(CN3C(=O)CCn4nc(-c5c(Cl)cnn5C(C)C)cc43)cc2F)n1 [Example 92],> 500
8,CC(C)n1ncc(Cl)c1-c1cc2n(n1)CCC(=O)N2Cc1ccc(-c2ccn(C)n2)cc1 [Example 95],100 to 500
9,COCc1cc(C(F)(F)F)nn1-c1ccc(CN2C(=O)CCn3nc(-c4c(OC)ncnc4C4CC4)cc32)cc1 [Example 99],100 to 500
10,CC(C)n1ncc(Cl)c1-c1cc2n(n1)CCC(=O)N2Cc1ccc(-c2nc(C(F)(F)F)n(C)n2)cc1 [Example 101],100 to 500
11,CC(C)n1ncc(Cl)c1-c1cc2n(n1)CCC(=O)N2Cc1ccc(-c2nc(C(F)(F)F)nn2C)cc1 [Example 102],100 to 500
12,CCn1cc(C(F)(F)F)nc1-c1ccc(CN2C(=O)CCn3nc(-c4c(OC)ncnc4C4CC4)cc32)cn1 [Example 105],100 to 500
13,COc1ncnc(C2CC2)c1-c1cc2n(n1)CCC(=O)N2Cc1ccc(-n2nc(C#N)cc2OC)cc1 [Example 107],100 to 500
14,CC(c1ccc(F)cc1)N1C(=O)CCn2nc(-c3c(Cl)cnn3C(C)C)cc21 (stereo not drawn) [Example 110],100 to 500
15,COc1ccnn1-c1ccc(CN2C(=O)CCn3nc(-c4c(Cl)cnn4C(C)C)cc32)cc1 [Example 117],100 to 500
16,CCn1cc(C(F)(F)F)nc1-c1cc2c(cc1F)C(N1C(=O)CCn3nc(-c4c(Cl)cnn4C(C)C)cc31)CC2 (stereo not drawn) [Example 121],100 to 500
17,CCn1cc(C)nc1-c1ccc(CN2C(=O)CCn3nc(-c4c(Cl)cnn4C(C)C)cc32)cc1 [Example 134],100 to 500
18,CCn1cc(C(F)(F)F)nc1-c1ccc(CN2C(=O)CCn3nc(-c4c(OC)ncnc4C4CC4)cc32)cc1OC [Example 136],100 to 500
19,CCn1cc(C(F)(F)F)nc1-c1ccc(CN2C(=O)CCn3nc(-c4c(OC)ncnc4C4CC4)cc32)nc1 [Example 137],100 to 500
20,"COc1ncnc(C2(C)CC2)c1-c1cc2n(n1)CCC(=O)N2Cc1ccc(-c2nc(C(F)(F)F)cn2C)c(F)c1 [Example 149, 4-(3-fluoro-4-(1-methyl-4-(trifluoromethyl)-1H-imidazol-2-yl)benzyl)-2-(4-methoxy-6-(1-methylcyclopropyl)pyrimidin-5-yl)-6,7-dihydropyrazolo[1,5-α]pyrimidin-5(4H)-one]",100 to 500
21,CCn1cc(C(F)(F)F)nc1-c1ccc(CN2C(=O)CCn3nc(-c4c(Cl)cnn4C4CCOC4)cc32)cc1 (stereo not drawn) [Example 150],100 to 500
22,COc1cnn(C(C)C)c1-c1cc2n(n1)CCC(=O)N2Cc1ccc(-c2nc(C(F)(F)F)cn2C(C)C)cc1 [Example 152],100 to 500
23,CCn1cc(C(F)(F)F)nc1-c1ccc(CN2C(=O)CCn3nc(-c4c(OC)cnn4C(C)C)cc32)cc1 [Example 155],100 to 500
24,CCn1cc(C(F)(F)F)nc1-c1ccc(CN2C(=O)CCn3nc(-c4c(C(C)(C)C)cnn4C)cc32)cc1 [Example 157],100 to 500
25,CCn1cc(C(F)(F)F)nc1-c1ccc(CN2C(=O)CCn3nc(-c4c(C(C)C)cnn4C)cc32)cc1 [Example 158],> 500
26,CCn1cc(C(F)(F)F)nc1-c1ccc(CN2C(=O)CCn3nc(-c4c(C5CC5)cnn4C(C)C)cc32)cc1 [Example 161],100 to 500
27,CCn1cc(C(F)(F)F)nc1-c1ccc(CN2C(=O)CCn3nc(-c4c(Cl)cnn4CCO)cc32)cc1F [Example 163],100 to 500
28,CCn1cc(C(F)(F)F)nc1-c1ccc(CN2C(=O)CCn3nc(-c4c(OC)ncnc4C4CC4)nc32)cc1OC [Example 185],100 to 500
29,CCn1cc(C(F)(F)F)nc1-c1ccc(CN2C(=O)CCn3nc(-c4c(OC)ncnc4C4CC4)nc32)cc1OC(F)F [Example 192],100 to 500
30,CCn1cc(C#N)nc1-c1ccc([C@H](C)N2C(=O)CCn3nc(-c4c(OC)ncnc4C4CC4)nc32)cc1 [Example 198],> 500

# Other lines, results leading:
row,IC50 [nM],Compound
1,100 to 500,"COc1cccnc1-c1ccc(N[C@H]2CCCn3nc(-c4c(OC)ncnc4C4CC4)cc32)cc1F (single isomer, unassigned) [Example 252]"
2,100 to 500,"COc1cccnc1-c1ccc(N[C@@H]2CCCn3nc(-c4c(OC)ncnc4C4CC4)cc32)cc1Cl (single isomer, unassigned) [Example 253]"
3,100 to 500,"COc1cccnc1-c1ccc(N[C@H]2CCCn3nc(-c4c(OC)ncnc4C4CC4)cc32)cc1Cl (single isomer, unassigned) [Example 254]"
4,100 to 500,"COc1ncnc(C2CC2)c1-c1cc2n(n1)CCC(=O)N2C(C)c1ccc(-c2nc(C(F)(F)F)cn2C)cc1 (stereo not drawn) [Example 3, 2-(4-cyclopropyl-6-methoxypyrimidin-5-yl)-4-(1-(4-(1-methyl-4-(trifluoromethyl)-1H-imidazol-2-yl)phenyl)ethyl)-6,7-dihy dropyrazolo[1,5-a]pyrimidin-5(4H)-one]"
5,100 to 500,"CCn1cc(C(F)(F)F)nc1-c1ccc(CN2C(=O)CCn3nc(-c4c(OC)ncnc4OC)cc32)cc1 [Example 5, 2-(4,6-dimethoxypyrimidin-5-yl)-4-(4-(1-ethyl-4-(trifluoromethyl)-1H-imidazol-2-yl)benzyl)-6,7-dihydropyrazolo[1,5-a]pyrimidin-5(4H)-one]"
6,< 100,"CCn1ncc(Cl)c1-c1cc2n(n1)CCC(=O)N2Cc1ccc(-c2nc(C(F)(F)F)cn2C)c(F)c1 [Example 17, 2-(4-chloro-1-ethyl-1H-pyrazol-5-yl)-4-(3-fluoro-4-(1-methyl-4-(trifluoromethyl)-1H-imidazol-2-yl)benzyl)-6,7-dihydropyrazolo[1,5-a]pyrimidin-5(4H)-one]"
7,100 to 500,"CC(C)n1ncc(F)c1-c1cc2n(n1)CCC(=O)N2Cc1ccc(-c2nc(C(F)(F)F)cn2C)c(F)c1 [Example 21, 2-(4-fluoro-1-isopropyl-1H-pyrazol-5-yl)-4-(3-fluoro-4-(1-methyl-4-(trifluoromethyl)-1H-imidazol-2-yl)benzyl)-6,7-dihydropyrazolo[1,5-a]pyrimidin-5(4H)-one]"
8,100 to 500,"CCn1cc(C(F)(F)F)nc1-c1ccc(CN2C(=O)CCn3nc(-c4cccc5c4N(C)CC5)cc32)cc1 [Example 23, 4-(4-(1-ethyl-4-(trifluoromethyl)-1H-imidazol-2-yl)benzyl)-2-(1-methylindolin-7-yl)-6,7-dihydropyrazolo[1,5-a]pyrimidin-5(4H)-one]"
9,100 to 500,COc1ncnc(C)c1-c1cc2n(n1)CCCN2Cc1ccc(-n2nc(C(F)(F)F)cc2C)cc1 [Example 26]
10,100 to 500,"COc1ncnc(C2CC2)c1-c1cc2n(n1)CCC(=O)N2Cc1ccc(-c2nc(C(F)(F)F)c[nH]2)cc1 [Example 69, 2-(4-cyclopropyl-6-methoxypyrimidin-5-yl)-4-(4-(4-(trifluoromethyl)-1H-imidazol-2-yl)benzyl)-6,7-dihydropyrazolo[1,5-α]pyrimidin-5(4H)-one]"
11,100 to 500,"COc1ncnc(C2CC2)c1-c1cc2n(n1)CC(C)(C)C(=O)N2Cc1ccc(-c2nc(C(F)(F)F)cn2C)cc1 [Example 76, 2-(4-cyclopropyl-6-methoxypyrimidin-5-yl)-6,6-dimethyl-4-(4-(1-methyl-4-(trifluoromethyl)-1H-imidazol-2-yl)benzyl)-6,7-dihydropyrazolo[1,5-α]pyrimidin-5(4H)-one]"
12,< 100,COc1ncnc(C2CC2)c1-c1cc2n(n1)CCC(=O)N2Cc1ccc(-c2nc(C(F)(F)F)cn2CCF)cc1 [Example 81]
13,100 to 500,CC(C)n1ncc(Cl)c1-c1cc2n(n1)CCC(=O)N2Cc1ccc(-c2nc(C(F)(F)F)cn2C)nc1 [Example 82]
14,100 to 500,CCn1nc(C(F)(F)F)nc1-c1ccc(CN2C(=O)CCn3nc(-c4c(Cl)cnn4C(C)C)cc32)cc1 [Example 84]
15,100 to 500,CCn1cc(C(F)(F)F)nc1-c1ccc(CN2C(=O)CCn3nc(-c4c(F)cnn4C(C)C)cc32)cc1 [Example 85]
16,100 to 500,COc1ncnc(C2CC2)c1-c1cc2n(n1)CCC(=O)N2Cc1ccc(-n2nc(C)cc2C(F)(F)F)c(F)c1 [Example 88]
17,< 100,COc1cc(C(F)(F)F)nn1-c1ccc(CN2C(=O)CCn3nc(-c4c(Cl)cnn4C(C)C)cc32)cn1 [Example 89]
18,100 to 500,COc1ncnc(C2CC2)c1-c1cc2n(n1)CCC(=O)N2Cc1ccc(-n2nc(C(F)(F)F)cc2OC)nc1 [Example 94]
